Test results: patent publication US11925649B2, “Treatments for diabetic neuropathy” (University of Manitoba, priority 2010, dated 2024)

What was measured:
[1] = system: sensory neurons from DRG of Sprague Dawley rat; experiment: Total neurite outgrowth at low concentrations of M1R antagonists (immunostaining); type: cell-based; conditions: 24 hr culture
Experimental: Sensory neurons from cervical, thoracic and lumbar DRG of an adult 3-4 month old male Sprague Dawley rat were isolated and dissociated using the method described in Example 1, and then were cultured for 24 h in serum-free and insulin-free F12 medium in the presence of modified N2 additives. […] Neurite outgrowth was then assessed after a culture period of 24 hr.
Total neurite lengths (i.e., the sum of the length of all neurites produced by an individual neuron) were assessed using an immunostaining method. […] Four images were captured per well and the replicate well frequency was set to n=6. The neuronal marker β-tubulin III (Sigma-Aldrich Canada Ltd.) was applied to formalin fixed cells. The marker was tagged with the fluorescent conjugate Alexa Fluor 488 (Invitrogen Canada Ltd.). Fluorescent images were collected using an Olympus IX71 inverted microscope with a 20×/0.45 PH1 [sequence] objective that was suitable for resolving images on plastic surfaces. […] Captured image fluorescence was thereafter converted to a grayscale 8-bit image to quantify total pixel volume. […] Total pixel volume of the neuron specific cell bodies and neurites were quantified. […] The net pixel volume was normalized against the number of neuronal cells per quantified field.

[2] = system: AMP-activated protein kinase (AMPK); experiment: Phosphorylation of AMPK in cultured sensory neurons (Western blot); type: cell-based, rat; conditions: 10 μM
Experimental: Samples were taken immediately (time 0) and then after 15 min, 30 min, 60 min, and 6 hr of incubation. Quantitative Western blotting was performed as following the procedure taught in Example 5. DRG homogenates of 5-10 μg of protein were resolved on a 10% SDS-PAGE gel and electroblotted onto nitrocellulose membrane. Blots were then blocked in 5% nonfat milk containing 0.05% Tween-20, rinsed in PBS (pH 7.4) and incubated with the following antibodies: (i) polyclonal anti-phospho AMPK (on Thr-172, 1:1000, Cell Signaling Technology, Danvers, MA, US), and (ii) extracellular signal-regulated kinase (T-ERK; 1:2000, Covance, Princeton, NJ, US). The blots were rinsed, incubated in Western blotting Luminol Reagent (Santa Cruz Biotechnology Inc., Santa Cruz, CA, US) and imaged using a BioRad Fluor-S image analyzer (BioRad, Hercules, CA, US).

[3] = system: STZ-induced diabetic Swiss Webster mice; experiment: Reversal of thermal hypoalgesia and IENF loss in STZ-induced diabetic mice, i.p.; type: in vivo, mouse; conditions: 10 mg/kg i.p. daily for 4 weeks from week 8
Experimental: Swiss Webster (outbred) mice were made diabetic with 2 injections of 90 mg/kg STZ on consecutive days. […] The mice were maintained for 8 weeks after STZ injections. Diabetic neuropathy was well-established in the mice that received STZ injections as evidenced by signs of neuropathy (thermal hypoalgesia). A cohort then received 10 mg/kg VU255035 by i.p. injection daily for 4 weeks.

[4] = system: M1R relative to M(2)-M(5); conditions: cited from earlier work
M1R = conditions: cited from earlier work
[5] = in vivo in mice; cited from earlier work
[6] = system: sensory neurons from DRG of non-diabetic Sprague Dawley rat; experiment: Neurite outgrowth from excised neurons from a normal rat; type: cell-based; conditions: 24 hr; for neurite outgrowth rates: higher dosages 0.1 to 10.0 μM; for neurite outgrowth: lowest dosage of 0.01 μM
Text: Sensory neurons from cervical, thoracic and lumbar DRG of a 3-4 month old adult male ZDF diabetic rat (model of type 2 diabetes) were isolated and dissociated using a method based on the teachings of Fernyhough et al. (1993, Brain Res. 607:117-124), Gardiner et al. (2005, Mol. Cell Neurosci. 28:229-240), and Huang et al. (2003, Diabetes 52:2129-2136). Briefly, DRG were removed from all spinal levels, their roots trimmed, and then the cells were chemically dissociated in 0.125% collagenase (Worthington Biochemical Corp., Lakewood, NJ, USA) in F12 nutrient medium (Invitrogen Canada Inc., Burlington, ON, Canada) for 1.5 h at 37° C. The ganglia were then mechanically dissociated by treatment with 0.05% trypsin (Worthington Biochemical Corp.) in F12 nutrient medium, followed by trituration with a glass pipette. […] The neuron cells were plated onto poly-L-ornithine-laminin-coated NUNC 48-well or 96-well plastic dishes with optically clear glass bottoms in serum-free and insulin-free F12 medium in the presence of modified N2 additives (containing no insulin) at 37° C. in a 95% air/5% CO2 humidified incubator. All cultures were exposed to the following additional conditions: 10 mM D-glucose, 0.1 nM insulin, 0.3 ng/ml NGF, 1 ng/ml NT-3 and 5 ng/ml GDNF (all obtained from Sigma-Aldrich Canada Ltd.). […] Neurite outgrowth was then assessed at 24 hr as previously described by Fernyhough et al. (1993) and Gardiner et al. (2005).
Sensory neurons from cervical, thoracic and lumbar DRG of a 3-4 month old non-diabetic adult male Sprague Dawley rat were isolated and dissociated using the method described in Example 1. The excised and dissociated neuron cells were plated onto poly-L-ornithine-laminin-coated NUNC 48-well or 96-well plastic dishes with optically clear glass bottoms in serum-free and insulin-free F12 medium in the presence of modified N2 additives (containing no insulin) at 37° C. in a 95% air/5% CO2 humidified incubator. All cultures were exposed to the following additional conditions: 10 mM D-glucose, 0.1 nM insulin, 0.3 ng/ml NGF, 1 ng/ml NT-3 and 5 ng/ml GDNF (all obtained from Sigma-Aldrich Canada Ltd.). […] Neurite outgrowth was then assessed at 24 hr.

SMILES | concentration that significantly increased total neurite outgrowth [1] [µM] | total AMPK levels [2] | phosphorylation of AMPK (P-AMPK) relative to total ERK ([2]; 30-60 min) | phosphorylation of AMPK (P-AMPK) relative to total ERK ([2]; by 15 min) | phosphorylation of AMPK (P-AMPK) relative to total ERK ([2]; by 6 hr) | loss of IENF [3] | loss of SNP [3] | thermal hypoalgesia [3] | selectivity to M1R relative to M2, M3, M4 and M5 receptors [4] [times] | selectivity for M1R relative to M(2)-M(5) ([4]; equilibrium radioligand binding and functional studies) | mode of antagonism (M1R) | blood brain barrier penetration [5] | neurite outgrowth rates [6] | neurite outgrowth [6]
O=C(CCNS(=O)(=O)c1cccc2nsnc12)N1CCN(c2ccncc2)CC1 [VU255035, N-(3-oxo-3-(4-(pyridine-4-yl)piperazin-1-yl)propyl)-benzo[c][1,2,5]thiadiazole-4 sulfonamide] | ≥ 0.03 | not affected | maintained phosphorylation | significantly raised phosphorylation of AMPK | return to baseline | significantly reversed loss | significantly reversed loss | significant reversal back to control levels of thermal sensitivity | 75 | greater than 75 fold | competitive orthosteric antagonist of M1R | excellent blood brain barrier penetration |  | 
CN1[C@@H]2CC[C@H]1C[C@@H](OC(=O)C(CO)c1ccccc1)C2 (stereo partly shown) [atropine] |  |  |  |  |  |  |  |  |  |  |  |  | did not further increase neurite outgrowth rates | more than tripled
Cc1scc2c1N(C(=O)CN1CCN(C)CC1)c1ccccc1NC2=O [telenzepine, Telenzepine] |  |  |  |  |  |  |  |  |  |  |  |  | tripled | more than doubled
